Active and inactive are the calls of the source. How the calls were made is not given here.
System: CCRIS mutagenicity, Ames/micronucleus/aberration tests
Assay: CCRIS mutagenicity studies
[1] = Test System: AMES SALMONELLA TYPHIMURIUM, Strain/Indicator: TA98, Metabolic Activation: NONE, Method: STANDARD PLATE
[2] = Test System: AMES SALMONELLA TYPHIMURIUM, Strain/Indicator: TA100, Metabolic Activation: NONE, Method: STANDARD PLATE
[3] = Test System: AMES SALMONELLA TYPHIMURIUM, Strain/Indicator: TA98, Metabolic Activation: NONE, Method: PREINCUBATION
[4] = Test System: AMES SALMONELLA TYPHIMURIUM, Strain/Indicator: TA100, Metabolic Activation: NONE, Method: PREINCUBATION

O=c1[nH]c(=O)n([C@H]2C[C@H](O)[C@@H](CO)O2)cc1Br
mutagenic call [1]: inactive; negative | mutagenic call (Test System: AMES SALMONELLA TYPHIMURIUM, Strain/Indicator: TA98, Metabolic Activation: S-9, Method: STANDARD PLATE): inactive; negative | mutagenic call [2]: inactive; negative | mutagenic call (Test System: AMES SALMONELLA TYPHIMURIUM, Strain/Indicator: TA100, Metabolic Activation: S-9, Method: STANDARD PLATE): inactive; negative | mutagenic call (Test System: AMES SALMONELLA TYPHIMURIUM, Strain/Indicator: TA1537, Metabolic Activation: S-9, Method: STANDARD PLATE): inactive; negative | mutagenic call (Test System: CHINESE HAMSTER V-79, Strain/Indicator: V-79/6-THIOGUANINE, Metabolic Activation: NONE, Method: STANDARD PLATE): active; positive | mutagenic call (Test System: CHINESE HAMSTER V-79, Strain/Indicator: V-79/8-AZAGUANINE, Metabolic Activation: NONE, Method: STANDARD PLATE): active; positive | mutagenic call (Test System: E. COLI, Strain/Indicator: WP2 (HCR), Metabolic Activation: NONE, Method: STANDARD PLATE): inactive; negative | mutagenic call (Test System: E. COLI, Strain/Indicator: WP2 (HCR), Metabolic Activation: S-9, Method: STANDARD PLATE): inactive; negative

CCCC(=O)OCc1ccccc1[N+](=O)[O-]
mutagenic call [3]: inactive; negative | mutagenic call [4]: inactive; negative | mutagenic call (Test System: AMES SALMONELLA TYPHIMURIUM, Strain/Indicator: TA100, Metabolic Activation: RAT, LIVER, S-9, AROCLOR 1254, Method: PREINCUBATION): inactive; negative

CCCCOCCO
mutagenic call (Test System: AMES SALMONELLA TYPHIMURIUM, Strain/Indicator: TA97, Metabolic Activation: HAMSTER, LIVER, S-9, AROCLOR 1254 (10 OR 30%), Method: PREINCUBATION): inactive; negative | mutagenic call (Test System: AMES SALMONELLA TYPHIMURIUM, Strain/Indicator: TA97, Metabolic Activation: NONE, Method: PREINCUBATION): inactive; negative | mutagenic call (Test System: AMES SALMONELLA TYPHIMURIUM, Strain/Indicator: TA97, Metabolic Activation: RAT, LIVER, S-9, AROCLOR 1254 (5, 10 OR 30%), Method: PREINCUBATION): inactive; negative | mutagenic call (Test System: AMES SALMONELLA TYPHIMURIUM, Strain/Indicator: TA97A, Metabolic Activation: RAT, LIVER, S-9, AROCLOR 1254 (2.5 OR 10%), Method: STANDARD PLATE): inactive; negative | mutagenic call (Test System: AMES SALMONELLA TYPHIMURIUM, Strain/Indicator: TA97A, Metabolic Activation: RAT, LIVER, S-9, AROCLOR 1254, Method: STANDARD PLATE): active; positive | mutagenic call (Test System: AMES SALMONELLA TYPHIMURIUM, Strain/Indicator: TA98, Metabolic Activation: HAMSTER, LIVER, S-9, AROCLOR 1254 (10 OR 30%), Method: PREINCUBATION): inactive; negative | mutagenic call [3]: inactive; negative | mutagenic call [1]: inactive; negative | mutagenic call (Test System: AMES SALMONELLA TYPHIMURIUM, Strain/Indicator: TA98, Metabolic Activation: RAT, LIVER, S-9, AROCLOR 1254 (10 OR 30%), Method: PREINCUBATION): inactive; negative | mutagenic call (Test System: AMES SALMONELLA TYPHIMURIUM, Strain/Indicator: TA98, Metabolic Activation: RAT, LIVER, S-9, AROCLOR 1254, Method: STANDARD PLATE): inactive; negative | mutagenic call (Test System: AMES SALMONELLA TYPHIMURIUM, Strain/Indicator: TA100, Metabolic Activation: HAMSTER, LIVER, S-9, AROCLOR 1254 (10 OR 30%), Method: PREINCUBATION): inactive; negative | mutagenic call [4]: inactive; negative | mutagenic call [2]: inactive; negative | mutagenic call (Test System: AMES SALMONELLA TYPHIMURIUM, Strain/Indicator: TA100, Metabolic Activation: RAT, LIVER, S-9, AROCLOR 1254 (2.5 OR 10%), Method: STANDARD PLATE): inactive; negative | mutagenic call (Test System: AMES SALMONELLA TYPHIMURIUM, Strain/Indicator: TA100, Metabolic Activation: RAT, LIVER, S-9, AROCLOR 1254 (10 OR 30%), Method: PREINCUBATION): inactive; negative | mutagenic call (Test System: AMES SALMONELLA TYPHIMURIUM, Strain/Indicator: TA100, Metabolic Activation: RAT, LIVER, S-9, AROCLOR 1254, Method: STANDARD PLATE): inactive; negative | mutagenic call (Test System: AMES SALMONELLA TYPHIMURIUM, Strain/Indicator: TA102, Metabolic Activation: NONE, Method: STANDARD PLATE): inactive; negative | mutagenic call (Test System: AMES SALMONELLA TYPHIMURIUM, Strain/Indicator: TA102, Metabolic Activation: RAT, LIVER, S-9, AROCLOR 1254, Method: STANDARD PLATE): inactive; negative | mutagenic call (Test System: AMES SALMONELLA TYPHIMURIUM, Strain/Indicator: TA1535, Metabolic Activation: HAMSTER, LIVER, S-9, AROCLOR 1254 (10 OR 30%), Method: PREINCUBATION): inactive; negative | mutagenic call (Test System: AMES SALMONELLA TYPHIMURIUM, Strain/Indicator: TA1535, Metabolic Activation: NONE, Method: PREINCUBATION): inactive; negative | mutagenic call (Test System: AMES SALMONELLA TYPHIMURIUM, Strain/Indicator: TA1535, Metabolic Activation: RAT, LIVER, S-9, AROCLOR 1254 (10 OR 30%), Method: PREINCUBATION): inactive; negative | mutagenic call (Test System: AMES SALMONELLA TYPHIMURIUM, Strain/Indicator: TA1537, Metabolic Activation: HAMSTER, LIVER, S-9, AROCLOR 1254 (30%), Method: PREINCUBATION): inactive; negative | mutagenic call (Test System: AMES SALMONELLA TYPHIMURIUM, Strain/Indicator: TA1537, Metabolic Activation: NONE, Method: PREINCUBATION): inactive; negative | mutagenic call (Test System: AMES SALMONELLA TYPHIMURIUM, Strain/Indicator: TA1537, Metabolic Activation: RAT, LIVER, S-9, AROCLOR 1254 (30%), Method: PREINCUBATION): inactive; negative | mutagenic call (Test System: CHINESE HAMSTER OVARY, Strain/Indicator: CHO-AS52/6-THIOGUANINE, Metabolic Activation: NONE): inactive; negative | mutagenic call (Test System: CHINESE HAMSTER V-79, Strain/Indicator: V-79 (HPRT)/6-THIOGUANINE, Metabolic Activation: NONE): active; positive | mutagenic call (Test System: E. COLI, Strain/Indicator: WP2 UVRA, Metabolic Activation: NONE, Method: STANDARD PLATE): inactive; negative | mutagenic call (Test System: E. COLI, Strain/Indicator: WP2 UVRA, Metabolic Activation: RAT, LIVER, S-9, AROCLOR 1254 (2.5 OR 10%), Method: STANDARD PLATE): inactive; negative

Nc1ccc(N=Nc2ccc(N=Nc3c(S(=O)(=O)O)cc4c(c3N)C(=O)/C(=N\Nc3ccc(N=Nc5ccc(N)cc5N)cc3)C(S(=O)(=O)O)=C4)cc2)c(N)c1
mutagenic call (Test System: AMES SALMONELLA TYPHIMURIUM, Strain/Indicator: TA1538, Metabolic Activation: NONE, Method: STANDARD PLATE): inactive; negative | mutagenic call (Test System: AMES SALMONELLA TYPHIMURIUM, Strain/Indicator: TA1538, Metabolic Activation: RAT, LIVER, S-9, AROCLOR 1254, Method: STANDARD PLATE): active; positive

CC(C)(C)N(CC(O)COc1cccc2c1CC(O)C(O)C2)N=O (centres undefined)
mutagenic call (Test System: UDS HUMAN HEPATOCYTES, Strain/Indicator: THY INCORP, Metabolic Activation: NONE, Method: AUTORADIOGRAPHY): active; positive | mutagenic call (Test System: UDS RAT HEPATOCYTES, Strain/Indicator: THY INCORP, Metabolic Activation: NONE, Method: AUTORADIOGRAPHY): active; positive

BrCC(Br)CBr
mutagenic call (Test System: AMES SALMONELLA TYPHIMURIUM, Strain/Indicator: TA100, Metabolic Activation: RAT, LIVER, MICROSOMES, PHENOBARBITAL, NADPH COFACTORS, Method: STANDARD PLATE): active; positive | mutagenic call (Test System: AMES SALMONELLA TYPHIMURIUM, Strain/Indicator: TA100, Metabolic Activation: RAT, LIVER, MICROSOMES, PHENOBARBITAL, Method: STANDARD PLATE): inactive; negative

COc1cc2c3c(c1O)-c1cc4c(cc1C[C@@H]3N(C)CC2)OCO4
mutagenic call (Test System: AMES SALMONELLA TYPHIMURIUM, Strain/Indicator: TA100, Metabolic Activation: RAT, LIVER, S-9, PHENOBARBITAL AND BETA-NAPHTHOFLAVONE, Method: PREINCUBATION): inactive; negative

CN(C)Nc1nc(-c2ccc([N+](=O)[O-])o2)cs1
mutagenic call (Test System: AMES SALMONELLA TYPHIMURIUM, Strain/Indicator: TA100, Metabolic Activation: RAT, LIVER, S-9, KC500 OR PHENOBARBITAL, Method: LIQUID SUSPENSION): active; positive | mutagenic call (Test System: E. COLI WP2, Strain/Indicator: WP2, Metabolic Activation: NONE, Method: SPOT): active; positive
